Literature values in US20050065128A1, “2-alkylidene-19-nor-vitamin D derivatives for the treatment of hypogonadism or andropause” (Pfizer Inc, priority 2003, published 2005).
Where two headings read alike, the source gives them in different places.

How the values were obtained:
[1] = system: HL-60 cells; details: method of Ostrem et al.
[2] = system: Intestinal Calcium Transport; details: intraperitoneal, male weanling rats on vitamin D-deficient low-calcium diet, 24 h after last dose, mean ± SEM
[3] = system: Serum Calcium (Bone Calcium Mobilization); details: for Serum Calcium (mg/100 ml): intraperitoneal, male weanling rats on vitamin D-deficient low-calcium diet, 24 h after last dose, mean ± SEM; for activity on bone calcium mobilization (serum calcium) relative to 1,25-(OH)2D3 (native hormone): chronic 7-day dosing in rats, fold of the native hormone

Row | Compound | inducing differentiation of HL-60 cells to the monocyte [1] | Intestinal Calcium Transport (S/M) ([2]; 130 pmol/day for 7 days) | Intestinal Calcium Transport (S/M) ([2]; 260 pmol/day for 7 days) | Serum Calcium (mg/100 ml) ([3]; 130 pmol/day for 7 days) | Serum Calcium (mg/100 ml) ([3]; 260 pmol/day for 7 days) | activity on bone calcium mobilization (serum calcium) relative to 1,25-(OH)2D3 (native hormone) [3]
1 | C=C1[C@H](O)CC(=C/C=C2\CCC[C@]3(C)[C@@H]([C@H](C)CCCC(C)(C)O)CC[C@@H]23)C[C@H]1O [2-Methylene-19-Nor-1,25-(OH)2D3, 1α,25-dihydroxy-2-methylene-19-nor-vitamin D3] | activity similar to 1,25-(OH)2D3 | no intestinal calcium transport activity | no intestinal calcium transport activity | extremely strong bone calcium mobilization | extremely strong bone calcium mobilization | 10-100 times
2 | C=C1[C@H](O)CC(=C/C=C2\CCC[C@]3(C)[C@@H]([C@@H](C)CCCC(C)(C)O)CC[C@@H]23)C[C@H]1O [2-Methylene-19-Nor-20S-1,25-(OH)2D3, (20S)-1α,25-dihydroxy-2-methylene-19-nor-vitamin D3] | extremely potent | no significant change | no significant change | – | – | at least 10 times
